# From US11965100B2, “Aggregation-induced emission luminogens useful for cancer cell discrimination and monitoring” (The Hong Kong University of Science and Technology, priority 2020, dated 2024)
# Tests used:
# [1] = system: cancer cells (A549 and HeLa) and normal cells (COS7 and HLF); experiment: CLSM imaging of separately stained cancer and normal cells; format: cell-based; conditions: 2 μM, 30 min, same staining and imaging conditions
# Description: FIG. 4 CLSM images of live cancer cells (A549 and HeLa) and normal cells (COS7 and HLF) stained with 2 μM IVP-02 for 30 min, respectively. λex=488 nm, λem=500-650 nm. Scale bar=20 μm.
# The bioimaging properties of IVP-02 in live cells were investigated by confocal laser scanning microscopy (CLSM). Cancer cells (A549 and HeLa) and normal cells (COS7 and HLF) were stained with IVP-02, respectively. […] So IVP-02 holds the high potential to differentiate cancer and normal cells. To verify this speculation, cancer and normal cells were co-cultured and stained with IVP-02. […] To precisely confirm the selectivity of IVP-02 to cancer cells, cancer cells A549 and normal cells HLF (A549 and HLF are both human lung cells) were seeded on different cover glasses, respectively. Then the two cover glasses were put in the same dish and stained with IVP-02 at the same time.
# [2] = Absorption and one-photon excited fluorescence spectra, AIE activity; format: physicochemical
# Excerpt: Similar results were reported by others. […] With the increase of glycerol volume content accompanied by viscosity increasing, the FL intensity increased gradually. […] These phenomena occur because high viscosity and low temperature could hamper intramolecular motion, leading to the closure of the nonradiative decay channel and thus enhanced FL emission. Furthermore, we added some RNA in PBS solution of IVP-02. […] Based on the calculation results in FIG. 20, IVP-02 located in the minor grooves of RNA, where the intramolecular motion of IVP-02 was also hampered.
# [3] = system: HeLa cells; experiment: Mitochondrion-nucleolus migration on CCCP treatment, HeLa cells; format: cell-based; conditions: pre-stained 2 μM 30 min, 20 μM CCCP 5 min
# Description: FIG. 16 Live HeLa cells were pre-stained with 2 μM IVP-02 for 30 min, and treated with 20 μM CCCP for 5 min. Then CCCP was removed away and fresh culture medium was added for another 5 min. λex=488 nm, λem=500-650 nm. Scale bar=20 μm.
# FIG. 19 Live HeLa cells were pre-stained with 2 μM IVP-04, 22, 42, 06, 62 for 30 min, and treated with 20 μM CCCP for 5 min. Then CCCP was removed away and fresh culture medium was added for another 5 min, respectively. λex=488 nm, λem=500-650 nm. Scale bar=20 μm.
# Monitoring cell viability is a highly valuable task for the fundamental researches in biology, pathology, and medicine. Then we investigated whether IVP-02 could monitor cell viability. Δψm is a very important indicator to characterize cell viability. With the loss of cell viability, Δψm would decrease, while with the recovery of cell viability, Δψm would also recover to the normal level. […] Carbonyl cyanide m-chlorophenyl hydrazone (CCCP) is a type of protonophore and can cause rapid acidification of mitochondria by collapsing Δψm. Cancer cells A549 were pre-stained with IVP-02 for 30 min. In FIG. 15A, in the beginning, IVP-02 stained mitochondria clearly. […] Hydrogen peroxide (H2O2) can inhibit the oxidation respiratory chain that would cause the loss of cell viability. Then live A549 and HeLa cells were pre-stained with IVP-02, and treated with 10 mM H2O2.
# In addition to IVP-02, we further investigated whether other IVP molecules could monitor the viability of cancer cells through mitochondrion-nucleolus migration was investigated. A549 cells were pre-stained with IVP-04, 22, 42, 06, and 62, respectively, and then CCCP was added.
# [4] = system: A549 cells; experiment: Cytotoxicity by standard MTT assay; format: cell-based, human; conditions: summary statement
# Description: FIG. 22 (A) Two-photon microscopy images of live HeLa cells stained with 2 μM IVP-02 for 30 min. λex=800 nm, λem=495-540 nm. Scale bar=20 μm. (B) Viability of A549 cells after incubation with IVP-02, 04, 06, 22, 42, and 62 at different concentrations for 24 h.
# The potential long-term cytotoxicity of bioprobes should be carefully considered for imaging in live cells. Then we studied the cytotoxicity of these IVP molecules to live A549 cells by standard MTT assay. […] While the incubation concentration is 10 μM, the cell viability was between 60% and 80%, showing certain cytotoxicity. Nonetheless, all cell imaging experiments in this work were conducted at low concentration 2 μM, which is reasonable and acceptable.
structure (smiles),measurement,setting,value
CC[n+]1ccc(/C=C/c2c[nH]c3ccccc23)cc1 [IVP-02],fluorescence intensity in normal cells versus cancer cells,[1],much weaker than that in cancer cells
same,AIE activity,"[2]; viscosity, temperature, RNA, solid state",possesses AIE activity
same,fluorescence in the solid state,[2]; λex 440 nm,around 575 nm
same,nucleolus staining after addition of CCCP,[3],could stain nucleolus
same,cytotoxicity,[4],low cytotoxicity
